As usually defined, the melting point is the temperature of the solid-liquid transition. `CC(Oc1ccc(Oc2ccc(F)cc2)cc1)(C(=O)O)c1ccccc1` (stereo not drawn) had a melting point of 113 to 115 °C. Under `COc1ccc2c3c(nn(CCO)c13)-c1ccccc1N2` stands 275 °C. Next, `COc1ccc(C(=O)O)s1`: 167 to 168 °C. In the case of `CCOC(=O)CCc1cccc(-c2c(CC(=O)Nc3ccc(F)cc3C(F)(F)F)c(=O)oc3cc(Cl)c(C)cc23)c1`, the melting point lay in the range of 121 to 123 °C. On to `CNC(=O)C(Cc1ccc(OC)cc1)NC(=O)C(C)(CC(C)C)c1ccc(OC)cc1SCc1ccc(OC)cc1` (stereo not drawn), for which the melting point lay within 150 to 158 °C. Next, `CSc1nn(C)c(=O)n1-c1ccccc1Oc1ccccc1`: 129 to 130 °C; `CCc1cccc(C)c1CNc1cc(Br)cc2c1nc(C)n2C`: 145 to 147 °C. Under `O=C(O)CCc1ccccc1C(=O)NCCc1ccccc1` stands 106 to 108 °C. Under `CCc1c(C)nc2ccc([N+](=O)[O-])cn2c1=O` stands 164 to 165 °C. `Nc1cc(NC(=O)c2ccc(Cl)c(Cl)c2)ccc1F` showed a melting point of 151 to 153 °C. Under `Cc1cccc(NC2=NCCO2)c1C` stands 112 to 114 °C.

Regarding `Cc1coc(C)c1C(=O)OC1CC(C)(C)N(CC#N)C(C)(C)C1`, the melting point was 156 °C.

For the compound `N=C(N)NCCCc1cc[nH]n1`, the melting point worked out at 210 °C.

With `CN(C)CCCC(=O)OC[C@@H]1CC(c2ccc(-c3ccc(N4C[C@H](Cn5ccnn5)OC4=O)cc3F)cn2)=NO1`, the melting point was found to be 148 °C.

As to `CCOC(=O)c1cc(N)ccc1O`, the melting point was 40 to 43 °C. Next, `CN1Cc2cccnc2C(N2CCN(C(=O)Cc3ccncc3)CC2)c2ccc(Cl)cc21` (stereo not drawn): 83 to 87 °C. Next, `N#Cc1ccc2oc(CCc3ccc(CO)cc3)cc2c1`: 72 to 73 °C. The compound `CN1C(=O)CC[C@]2(C)c3ccc(NC(=O)c4cccc([N+](=O)[O-])c4)cc3CC[C@@H]12` had a melting point of 240 to 242 °C. Next, `COC1CC(NC(C)=O)C(OC(=O)c2ccccc2)C(CBr)O1` (stereo not drawn): 173 °C; `Cc1ccc([N+](=O)[O-])c(C(=O)Nc2ccc(-n3nc(C(F)(F)F)cc3C(F)(F)F)cc2)c1`: 188 to 189 °C; `O=S1(=O)NC2CCCN2c2c(F)cc(O)cc21` (stereo not drawn): 167 to 169 °C. For the compound `Cn1ccnc1SCC(=O)Nc1ccc(-c2ccccc2)cc1`, the melting point lay within 151 to 154 °C. In turn, `CCCc1nc2c(n1Cc1ccc(-c3ccccc3-c3nnn[nH]3)cc1)C(C(=O)OCC)N(C(C)=O)CC2` (stereo not drawn) showed a melting point of 184 to 185 °C.

For `CN1CCN(CCCNc2ccc(-n3cc(C(F)(F)F)ccc3=O)c(Cl)c2)CC1`, the melting point was in the range of 129 to 132 °C. `N#Cc1ccc(-c2ncccc2O)cc1` had a melting point of 245 to 246 °C.

As for `C/C(=C\CCl)n1ncc(-c2ccc(S(N)(=O)=O)cc2)c(-c2ccc(F)cc2)c1=O`, the melting point was in the range of 152 to 154 °C.

The compound `Cc1nc2nc3cc(Cl)ccc3nc2[nH]1` showed a melting point above 300 °C. On to `O=C(O)c1cc(OCc2ccccc2)c(C(=O)c2ccc(Cl)cc2)c([N+](=O)[O-])c1`, for which the melting point was in the range of 137 to 138 °C.

For the compound `CC(=O)N(CCCCC(=O)O)C(c1ccccc1)c1ccccc1`, the melting point is 135 to 136 °C. In turn, `CCCOC(=O)C(=O)Nc1ccccn1` displayed a melting point of 56 to 59 °C.

In turn, `Cc1ccc(C(=O)Nc2c[nH]nc2C(=O)NCCOC(C)C)cn1` came in with a melting point of 168 to 169 °C. Next, `CC(Cl)C(=O)Nc1ccccc1C(=O)CC(=O)Nc1nccs1` (stereo not drawn): 204 °C; `CN(Cc1ccc(NC(=O)C2=Cc3cc(OCc4ccccc4Cl)ccc3S(=O)(=O)CC2)cc1)C1CCOCC1`: 205 to 207 °C; `O=C1c2cccc(O)c2Cc2cccc(O)c21`: 231 to 233 °C. In turn, `CCSc1cc(N)c([N+](=O)[O-])cc1N` returned a melting point of 142 °C. Next, `OC1(c2ccccc2Cc2ccccc2)CCN(CC2CC2)C1` (stereo not drawn): 118 to 120 °C; `CCCCCCOc1cc(C)ccc1C(=O)c1cccc(C(=O)O)c1`: 118 °C. Next, `CCCCCN1C(=O)C(c2ccc3c(c2)OCO3)(c2cc3c(cc2O)OCO3)c2ccccc21` (stereo not drawn): 75 to 76 °C; `O[C@]1(c2ccccc2)CCS[C@H]2CN(Cc3ccccc3)C[C@H]21` (racemic): 137 °C. Under `Oc1c(C(Nc2ccc(C(F)(F)F)cc2)c2ccccn2)ccc2cccnc12` (stereo not drawn) stands 158 to 161 °C; under `OCc1csc(Nc2ccc(Oc3ccccc3)cn2)n1`, 130 to 131 °C. On to `C#CCN(C(=O)OC(C)(C)C)c1cn(-c2cncc(F)c2)nc1C`, for which the melting point fell in the range of 81 to 82 °C.

On to `O=c1nc(-c2ccccc2)c2cc([N+](=O)[O-])ccc2n1CC1CC2CCC1C2` (stereo not drawn), for which the melting point worked out at 160 °C.

In turn, `CCOC(=O)c1ccc(/C=C(\C)c2cc3c(cc2OC)C(C)(C)CCC3(C)C)cc1` had a melting point of 97 to 98 °C. Under `FCCn1ncnc1COc1nn2c(-c3ccccc3F)nncc2c1-c1ccccc1F` stands 172 to 173 °C; under `NC(=O)c1[nH]c2ccc(Cl)cc2c1S(=O)(=O)c1cc(Cl)cc(Cl)c1`, 258 to 260 °C.

`CC(=O)Oc1ccc(C=C2CCCc3cc(C)cnc32)cc1OC(C)=O` showed a melting point of 100 to 101 °C.

The compound `COc1cc(C)c(C(=O)c2c(OC)cnc(Cl)c2Cl)c(OC)c1OC` registered a melting point of 98 to 99 °C. Next, `CCCCCCCCCCCCCCCCNC(=O)Nc1sc(C(=O)O)c(C)c1C(=O)OC(C)(C)C`: 188 to 189 °C; `O=C(NNc1ccc(NC(=S)Nc2ccccc2)cc1)c1ccccc1`: 149 to 151 °C. Next, `CC(c1ccc(CCn2cnc3cc(-c4ccc(Cl)cc4)sc3c2=O)cc1)N1CCCCC1` (stereo not drawn): 175 to 179 °C; `CCCc1nn(-c2ccc(C(F)(F)F)cn2)cc1CCCOc1nn(C2CCCCC2)cc1CC(=O)O`: 127 to 128 °C. Next, `O=C(O)C1=Cc2cc(-c3ccc(C(F)(F)F)cc3)ccc2S(=O)(=O)CC1`: above 300 °C; `CCc1cncc(-c2[nH]nc(C(=O)Cc3ccc4ccccc4c3)c2N)c1`: 222 to 224 °C. The compound `CCn1c(COC(N)=O)nc(C(C)C)c1Sc1cc(C#N)cc(C#N)c1` yielded a melting point of 174 to 175 °C. Next, `N#CC(Nc1ccccc1[N+](=O)[O-])c1c(Cl)cccc1Cl` (stereo not drawn): 195 °C; `CS(=O)(=O)C(=C1CN(C(c2ccc(Cl)cc2)c2ccc(Cl)cc2)C1)c1cccc(SC(F)(F)F)c1`: 70 °C.

Compound `CC1(C)CCOc2cc(O)ccc21` had a melting point of 88 to 88.5 °C. Next, `O=CC=CC(=C(c1ccc(F)cc1)c1ccc(F)cc1)n1cnnn1`: 152 to 154 °C. Next, `CCOc1c(N2CCC(Oc3ccc(CC(=O)N4CCN(c5ccccc5C)CC4C(N)=O)c(OC)c3)CC2)c(=O)c1=O` (stereo not drawn): 155 to 157 °C; `COc1ccc(CCNC(=O)CNc2cccc(C(N)=O)c2)cc1OC`: 133 to 135 °C.

The compound `CCOC(=O)c1ccc2nc(CC3CCN(c4ccc(Cl)nn4)CC3)sc2c1` gave a melting point of 158 °C. Under `CCOC(=O)c1c(CC)nn(C)c1NC(=O)Cc1ccc(OC)cc1` stands 112 to 113 °C. In turn, `Cc1cc2c3c(cc(C)c2[nH]c1=O)CC(C)(CN=[N+]=[N-])O3` (stereo not drawn) displayed a melting point of 232 to 234 °C. Under `CCOC(=O)c1cn(C2CC2)c2c(F)c(CCc3cc(Cc4cnc(N)nc4N)cc(OC)c3OC)c(F)cc2c1=O` stands 218 to 220 °C; under `C#CC(O)(c1ccccc1)c1ccncc1` (stereo not drawn), 165 to 166 °C. For the compound `Fc1ccc2c(C3CCNCC3)n[nH]c2c1`, the melting point was 214 to 216 °C. Next, `CC1Nc2ccc(-c3ccc(F)c(C#N)c3)cc2C(C)(C)O1` (stereo not drawn): 184 to 186 °C; `CCC[C@@H]([C@@H](CC(C)C)C(=O)N[C@@H](CCCNCN=N[N+](=O)[O-])C(=O)Nc1nccs1)N(O)C=O`: 130 to 136 °C. Next, `CCCc1nc2c(N)nc3ccccc3c2n1CCCC(=O)N(C)OC`: 163 to 165 °C; `c1cc2sc(C3OCCO3)cc2s1`: 88 to 90 °C. Next, `Cc1noc(C)c1-c1ccc(OC2SCC(O)C(O)C2O)cn1` (stereo not drawn): 138 °C; `CC(C)(COC(=O)c1cc(Cl)c(O)c(Cl)c1)COC(=O)c1cc(Cl)c(O)c(Cl)c1`: 180 to 181 °C; `O=S(=O)(Nc1ccc2c(OCc3cccc(-c4ccc(C(F)(F)F)cc4)n3)cccc2c1)C(F)(F)F`: 180 to 182 °C.

Take `CC(C)(O)c1cc2cc(O)c(Cl)c(Cl)c2s1`: the melting point was 171 to 173 °C. Under `Cc1ccc(-c2ccc(C(=O)CBr)cc2)cc1` stands 120 to 122 °C; under `CCCCCCC1OC(=O)c2cc(NC(C)=O)ccc21` (stereo not drawn), 135 to 137 °C. `Cc1cccc(CC(NC(=O)C(c2ccccc2)c2ccccc2)C(=O)NC(C#N)CCOc2cccc(C(=O)O)c2)c1` (stereo not drawn) had a melting point of 169 to 170 °C.

`NC(=O)[C@@H]1[C@H](Nc2c(Br)cnc3[nH]c(-c4ccsc4)nc23)[C@H]2C=C[C@@H]1C2` returned a melting point of 238 to 241 °C. Under `C#CC(C)(C)OC(C)Oc1ccc(NC(=O)N(C)C)cc1Cl` (stereo not drawn) stands 99 to 101 °C; under `N#Cc1c(NC(=O)C2CCCCC2)sc(-c2ccccc2)c1Br`, 167 to 168 °C; under `COC(=O)[C@@H]1COC(c2ncn3c2CN(C)C(=O)c2ccccc2-3)=N1`, 190 to 192 °C.

As to `CC(=O)SCC(=O)Nc1ccc(C(=O)O)cc1`, the melting point fell in the range of 233 to 234 °C.

With `O=C(c1cc2c(Br)cccc2o1)c1cc2c(Br)cccc2o1`, the melting point was 223 to 225 °C. Under `COc1cc(C(=O)OCc2ccccc2)ccc1S(=O)(=O)Cl` stands 72 °C.

As to `CN(c1nc2ccccc2c(=O)o1)c1ccccc1I`, the melting point was 144 to 148 °C.

With `CCNC(=O)n1cc(F)c(NC(C)=O)nc1=O`, the melting point lay in the range of 233 to 235 °C.

In turn, `CCCCCCCCCCCCCCOc1cccc(C(=O)Cl)c1` gave a melting point of 26 to 27 °C.

(Values after a melting point compilation (Tetko et al.; mined from patent text by program, amines drawn as free bases though some values may be those of a salt).)
